Assay results taken from ChEMBL document CHEMBL1127616, “Synthesis, structural characterization, and antitumor properties of a novel class of large-ring platinum(II) chelate complexes incorporating the cis-1,4-diaminocyclohexane ligand in a unique locked boat conformation” (J Med Chem, 1994).

Legend:
Format in all cases: functional, cell-based
Settings in all cases: Mus musculus
L1210 [1] = experiment: Tested for in vitro growth inhibition against murine leukemia cell L1210DACH
L1210 [2] = experiment: Tested for in vitro growth inhibition against murine leukemia cell L1210DDP5
L1210 [3] = experiment: Tested for in vitro growth inhibition against murine leukemia cell L1210PtR4
L1210 [4] = experiment: Tested for in vitro growth inhibition against murine leukemia cell L1210S
P388 [5] = experiment: Tested for in vitro growth inhibition against murine leukemia cell P388Pt4
P388 [6] = experiment: Tested for in vitro growth inhibition against murine leukemia cell P388S

Row | Substance | ID50 (L1210 [1]) | ID50 (L1210 [2]) | ID50 (L1210 [3]) | ID50 (L1210 [4]) | ID50 (P388 [5]) | ID50 (P388 [6])
1 | CI-973 | 1.8 µg/mL | 3.9 µg/mL | 2.6 µg/mL | 0.76 µg/mL | 1.62 µg/mL | 0.1 µg/mL
2 | [Pt(1R,2R-dach)Cl2] | 4.57 µg/mL | 0.164 µg/mL | 0.161 µg/mL | 0.059 µg/mL | 0.83 µg/mL | 0.077 µg/mL
